These results are taken from patent US10399986B2, “Inhibitors of leukotriene A4 hydrolase” (CELTAXSYS, INC., priority 2013, dated 2019).

In general, IC50 refers to the midpoint of a concentration-inhibition curve. In general, inhibition refers to the change of the read-out against control, counted positive when it falls. Low values mean a response near the control, high ones a response far below the control.

Values joined by “and” are separate entries in the source; they are usually repeats but may differ in a detail not shown here. Equal entries are not always repeated. Where two headings read alike, the source gives them in different places.

The target of assay [1] is T1, LTA4-h (Homo sapiens, UniProt P09960).
T1 sequence (P09960 1-611): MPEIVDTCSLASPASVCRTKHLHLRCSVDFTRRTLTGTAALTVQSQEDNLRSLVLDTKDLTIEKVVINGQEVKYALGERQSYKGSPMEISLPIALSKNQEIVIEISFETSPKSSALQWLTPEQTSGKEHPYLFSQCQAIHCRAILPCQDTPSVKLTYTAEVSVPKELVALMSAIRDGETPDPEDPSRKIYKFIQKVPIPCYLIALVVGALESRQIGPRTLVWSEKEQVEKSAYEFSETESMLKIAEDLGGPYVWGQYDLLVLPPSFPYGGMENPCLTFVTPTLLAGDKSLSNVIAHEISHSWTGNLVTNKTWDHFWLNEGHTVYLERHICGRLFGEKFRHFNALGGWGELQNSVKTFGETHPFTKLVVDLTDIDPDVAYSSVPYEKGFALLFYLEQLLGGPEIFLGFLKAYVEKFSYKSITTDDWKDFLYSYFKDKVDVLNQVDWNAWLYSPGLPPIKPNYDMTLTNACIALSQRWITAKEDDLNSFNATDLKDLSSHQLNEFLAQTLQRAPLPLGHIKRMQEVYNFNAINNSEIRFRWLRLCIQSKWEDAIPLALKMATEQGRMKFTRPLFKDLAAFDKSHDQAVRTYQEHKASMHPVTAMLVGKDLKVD
Put plainly: peptidase (aminopeptidase) assay. It counts as biochemical. From the text:
Since LTA4-h hydrolase is grouped with the M1 family of zinc metalloproteases (see, Rudberg, P. C. et al., J. Biol. Chem. 2002, Vol. 277, page 1398-1404), the compounds of the invention can be tested in the standard hydrolase and peptidase assay to determine the compounds' kinetic constants for binding to LTA4-h hydrolase and for inhibiting LTB4 synthesis (see Askonas, L. J., et al., The Journal of Pharmacology and Experimental Therapeutics 2002, 300(2): 577-582; Penning, T. D., J. Med. Chem. 2000, 43(4): 721-735; Kull, F. et al., The Journal of Biological Chemistry 1999, 274 (49): 34683-34690, the contents of which are expressly incorporated by reference herein).
(§1) The whole blood and aminopeptidase assays were performed as described in Penning et al., J. Med. Chem. 2000, 43, 721-735, and Rudberg et al., J. Biol. Chem. Vol. 279, No. 26, Issue of June 25, pp. 27376-27382, 2004, the contents of each of which are expressly incorporated by reference herein. The hydrolase assay was performed as described in U.S. Pat. No. 7,737,145, the contents of which are expressly incorporated herein.

In assay [2] the target is T1, LTA4-h. Put plainly: hydrolase assay. It counts as biochemical.
Excerpt: The compounds of the invention can be tested for their ability to inhibit LTA4-h by various known assays and by assays described herein. For example, the compounds can be tested for their ability to inhibit LTA4-h activity by assaying the compounds in the hydrolase-homogeneous time resolved fluorescence assay. This assay, which is a two-step assay, measures the hydrolysis of […] by analyzing the amount of LTB4 produced. The first step involves the enzymatic conversion of […] and the second step involves the quantification of the […] formed with a homogeneous time resolved fluorescence assay.
as §1

Assay [3] deals with T2, LTA4-h hydrolase (Homo sapiens, UniProt P09960).
T2 construct: whole blood assay using human, mouse, rat or dog whole blood; from tissue; host or cells: whole blood
T2 sequence (P09960 1-611): T1 sequence (P09960 1-611)
Put plainly: whole blood assay (WBA). It counts as cell-based. Here is the method: Compounds of the invention can also be tested for their ability as inhibitors of LTA4-h hydrolase in the whole blood assay using human, mouse, rat or dog whole blood (see Penning, T. D. et al., J. Med. Chem. (2000), 43(4): 721-735 for a description of a human whole blood assay and a mouse whole blood assay, the contents of which are expressly incorporated herein).
as §1

Assay [4] concerns cotton top tamarins. The settings on record: eight weeks of treatment; cited from earlier work.
Assay [5] has as its system ionophore-induced LTB4 production. The conditions noted are these: oral administration; mouse blood ex vivo; cited from earlier work.
Assay [6] has the same test system. The settings on record: oral administration; rat peritoneum in vivo; cited from earlier work.

In assay [1], “2-(4-phenoxyphenylamino)-3-cyano-6-(2-nitro-3-hydroxycarboxyphenyl)pyrazolo[1,5-a]pyrimidine [Compound 9]” came in with an IC50 of 3.3 nM. Further, the Hydrolase % inhibition in assay [2] (at 1 uM) is recorded as 20% inhibition at 1 uM.
For the compound `N#Cc1c(Nc2ccc(Oc3ccccc3)cc2)nn2cc(N)cnc12` [Compound 1], the figures for the IC50 in assay [3], in assay [1] and in assay [2] were > 8800 nM, 280 nM and 1500 nM, respectively.
Regarding `CS(=O)(=O)c1ccc(-c2cnc3c(C#N)c(Nc4ccc(Oc5ccccc5)cc4)nn3c2)c([N+](=O)[O-])c1` [Compound 2], the figures for the IC50 in assay [3], in assay [1] and in assay [2] were > 7200 nM, 260 nM and 3700 nM, respectively.
For the compound `N#Cc1c(Nc2ccc(Oc3ccccc3)cc2)nn2cc(-c3cc(C(=O)O)ccc3[N+](=O)[O-])cnc12` [Compound 3], the half-maximal inhibitory concentration (IC50) in assay [3] was > 10000 nM; in assay [1], 430 nM. Also, in assay [2], testing at 3 µM gave an inhibition of 39%.
In assay [1], `N#Cc1c(Nc2ccc(Oc3ccccc3)cc2)nn2cc(C(=O)c3cc([N+](=O)[O-])ccc3O)cnc12` [Compound 4] yielded an IC50 of 1700 nM. The compound also came in with an inhibition at 3 µM in assay [2] of 48%.
On to `N#Cc1c(Nc2ccc(Oc3ccccc3)cc2)nn2cc(C(=O)c3ccccc3O)cnc12` [Compound 5], for which the IC50 in assay [3] is 4900 nM and 3000 nM; in assay [1], 90 nM and 20 nM; in assay [2] it was 1400 nM and 490 nM.
Regarding `N#Cc1c(Nc2ccc(Oc3ccccc3)cc2)nn2cc(C(=O)c3cc(Cl)cc(Cl)c3O)cnc12` [Compound 6], the IC50 in assay [1] came to 960 nM. For the same compound, in assay [2], the inhibition at 3 µM worked out at 15%.
On to `N#Cc1c(Nc2ccc(Oc3ccccc3)cc2)nn2cc(C(=O)c3cc(Cl)ccc3O)cnc12` [Compound 7], for which the IC50 in assay [3] was 4600 nM and 3000 nM; in assay [1], 30 nM and 10 nM; in assay [2] it was 1600 nM and 2900 nM.
In turn, `N#Cc1c(Nc2ccc(Oc3ccccc3)cc2)nn2cc(-c3ccc(C(=O)O)cc3[N+](=O)[O-])cnc12` [Compound 10] had an IC50 in assay [1] of 120 nM. In assay [2] (at 1 uM), this compound registered an inhibition at 1 µM of 20%.
The compound `N#Cc1c(Nc2ccc(Oc3ccccc3)cc2)nn2cc(-c3cccc(C(=O)O)n3)cnc12` [Compound 11] showed an IC50 in assay [1] of 270 nM.
The same measure, in the same setting: as for `N#Cc1c(Nc2ccc(Oc3ccccc3)cc2)nn2cc(-c3ccc(C(=O)O)cn3)cnc12` [Compound 12], the figure is 84 nM.
As for `CN(CCCOc1ccc(Cc2ccccc2)cc1)CCC(=O)O.Cl` [SC57461], the colitis symptoms result in assay [4] is reported as “significantly improved colitis symptoms”. In addition, the “inhibition of ionophore-induced LTB4 production” value in assay [5] and in assay [6] was “caused inhibition” in each case.
